Data: article PMC11550998, “Novel 5-HT7 receptor antagonists modulate intestinal immune responses and reduce severity of colitis” (American Journal of Physiology - Gastrointestinal and Liver …, 2024)
≈ marks a conversion by molar mass, not a printed value. Read-outs that look alike come from different tables or passages of the source.

Experiments:
[1] = Microsomal stability assay, human liver microsomes; format: in vitro ADME; details: 37°C, NADPH regenerating system, read-out: T1/2 HLM
Method: Test compounds were assessed for microsomal stability by incubating at 37°C in the presence of mouse or human liver microsomes and an NADPH regenerating system as described by Yang et al. ([16]). Microsomal protein content was adjusted to ensure accurate rates of substrate consumption. Analysis was performed by LC-MS/MS analysis.

[2] = biological target: T1, h5-HT7D expressed in U2OS cells (Homo sapiens, UniProt P34969); assay: 5-HT7 functional assay (cAMP Hunter eXpress GPCR luminescence assay); format: cell-based; details: antagonist, cAMP production stimulated by 150 nM 5-HT (EC80), Cheng-Prusoff
T1 construct: host or cells: U2OS
T1 sequence (P34969 whole entry): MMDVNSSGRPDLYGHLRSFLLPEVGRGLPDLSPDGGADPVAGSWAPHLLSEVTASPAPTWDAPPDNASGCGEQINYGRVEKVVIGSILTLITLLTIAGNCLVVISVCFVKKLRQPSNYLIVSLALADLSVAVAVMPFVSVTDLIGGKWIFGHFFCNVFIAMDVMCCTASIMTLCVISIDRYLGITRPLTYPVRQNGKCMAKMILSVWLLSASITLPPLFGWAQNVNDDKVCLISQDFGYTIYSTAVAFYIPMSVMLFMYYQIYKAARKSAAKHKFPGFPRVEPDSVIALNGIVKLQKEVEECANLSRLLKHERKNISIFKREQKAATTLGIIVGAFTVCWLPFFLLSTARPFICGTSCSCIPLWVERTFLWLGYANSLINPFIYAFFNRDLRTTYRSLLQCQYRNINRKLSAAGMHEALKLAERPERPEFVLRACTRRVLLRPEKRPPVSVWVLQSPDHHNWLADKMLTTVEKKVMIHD
Method: The potencies of MC-170073, […], and MC-230079 as 5-HT7 antagonists were determined using the cAMP Hunter eXpress GPCR luminescence assay (DiscoveRx, 95-0163E3) and the manufacturer’s protocol. Cryopreserved U2OS cells expressing h5-HT7D were seeded into 96-well white-walled clear bottom tissue culture-treated plates (31,250 cells/well) and were allowed to recover for 16 h at 37°C in a humidified incubator with 5% CO2. The media was aspirated and replaced with 30-µL cell assay buffer (CAB). Cells were preincubated at 37°C for 15 min with 7.5 µL of 6× final concentration of 5 to 10 concentrations in triplicate of test compounds in CAB. Cells were then stimulated for 30 min at 37°C with 7.5 µL of 900 nM of the full agonist 5-HT in cell assay buffer (final concentration 150 nM; an EC80). cAMP levels/well were determined at room temperature by adding 15 µL of cAMP antibody and 60 µL of cAMP working detection solution, followed by the addition of 60 µL of solution A after 1 h incubation. Luminescence was read 16 h later with an EnVision multilabel plate reader. The IC50 of test compounds was calculated using GraphPad’s Prism 5 (GraphPad Software, La Jolla, CA) nonlinear curve-fitting program. The equilibrium dissociation constant for the competitive antagonists (KB) values was determined using the Cheng-Prusoff equation.

[3] = Aqueous solubility (pH 7.4) assay, Millipore MultiScreen filter system; format: physicochemical; details: read-out: Sol (aqueous solubility)
Method: Compounds were assessed for their solubility at pH 7.4 using the commercially available Millipore MultiScreen Solubility filter system (Millipore, Billerica, MA). Analysis was performed by liquid chromatography-tandem mass spectrometry (LC-MS/MS).

[4] = biological target: T2, human 5HT7A-HEK membranes (Homo sapiens, UniProt P34969); assay: 5-HT7 binding assay ([3H]LSD displacement); details: Cheng-Prusoff
T2 construct: expressed in transfected cells; host or cells: HEK cells (membranes)
T2 sequence (P34969 1-445 isoform P34969-2): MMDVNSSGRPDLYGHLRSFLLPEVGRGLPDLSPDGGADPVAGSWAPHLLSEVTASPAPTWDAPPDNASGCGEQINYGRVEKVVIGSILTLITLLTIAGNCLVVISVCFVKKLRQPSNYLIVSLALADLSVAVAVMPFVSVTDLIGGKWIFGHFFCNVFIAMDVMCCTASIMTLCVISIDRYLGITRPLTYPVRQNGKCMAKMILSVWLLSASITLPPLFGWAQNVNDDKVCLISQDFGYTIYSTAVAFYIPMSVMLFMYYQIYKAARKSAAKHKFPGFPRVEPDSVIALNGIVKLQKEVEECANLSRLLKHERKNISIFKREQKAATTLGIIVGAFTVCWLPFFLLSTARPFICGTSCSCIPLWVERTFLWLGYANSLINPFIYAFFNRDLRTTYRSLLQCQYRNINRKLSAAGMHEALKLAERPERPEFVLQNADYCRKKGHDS
Method: Solutions of test compounds were a 10 mM stock in dimethyl sulfoxide (DMSO) and then further diluted 1:200 in assay buffer [50 mM tris(hydroxymethyl)aminomethane (TRIS), pH 7.5, 10 mM MgCl2, 0.5 mM ethylenediaminetetraacetic acid (EDTA)] to 50 µM (0.5% DMSO). Ten dilutions of the test compound in 0.5% DMSO/assay buffer were prepared in a twofold serial dilution to yield final compound concentrations ranging from 10 µM to 19.5 nM in the assay. In a 96-well polypropylene plate, 50 µL of assay buffer was added to all wells, and then 50 µL of 0.5% DMSO/assay buffer or 50 µM chlorpromazine or serial dilutions of test compounds were added to selected wells. To all wells, 100 µL of 0.2 mg/mL human 5HT7A-HEK membranes and 50 µL of 5 nM [^3H]lysergic acid diethylamide (LSD) in assay buffer were added. Reactions were incubated at room temperature for 1.5 h and harvested by rapid filtration onto 0.3% polyethyleneimine-treated GF/B filter plates using a Brandel harvester. […] Filter plates were dried overnight, scintillant was added, and the radioactivity retained on the filters was counted on a TopCount scintillation counter (PerkinElmer). Half maximal inhibitory concentration (IC50) and inhibitory constant (Ki) of test compounds were calculated using GraphPad’s Prism 5 nonlinear sigmoidal curve-fitting program. […] Ki values were calculated using the Cheng-Prusoff equation.

[5] = Administration of antagonist in the absence of DSS; format: in vivo, mice; details: Supplemental Fig. S2
CYP2C9 = CYP2C9 (Homo sapiens, UniProt P11712); assay: Cytochrome P450 inhibition assay, 2C9 (fluorescent substrate); format: in vitro ADME; details: expressed enzyme
Sequence of CYP2C9 (P11712 whole entry): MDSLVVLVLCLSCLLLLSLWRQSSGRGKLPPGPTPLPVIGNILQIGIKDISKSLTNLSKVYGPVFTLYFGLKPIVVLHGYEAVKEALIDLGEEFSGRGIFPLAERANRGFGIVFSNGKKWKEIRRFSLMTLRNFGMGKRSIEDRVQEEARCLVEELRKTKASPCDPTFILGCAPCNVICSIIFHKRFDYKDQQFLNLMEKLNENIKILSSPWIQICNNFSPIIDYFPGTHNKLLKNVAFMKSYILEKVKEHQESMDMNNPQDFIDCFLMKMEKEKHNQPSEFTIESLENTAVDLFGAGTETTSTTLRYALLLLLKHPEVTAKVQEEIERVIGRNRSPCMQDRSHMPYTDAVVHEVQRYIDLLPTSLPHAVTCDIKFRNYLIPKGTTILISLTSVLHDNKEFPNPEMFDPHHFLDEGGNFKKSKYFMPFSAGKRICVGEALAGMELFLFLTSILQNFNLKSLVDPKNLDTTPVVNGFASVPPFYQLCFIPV
Method: (§1) Compounds were assessed for their ability to inhibit human cytochrome P450 3A4 using testosterone as a substrate and LC-MS/MS analysis, whereas the 2D6 and 2C9 assays used fluorescent substrates and EnVision plate reader analysis. Expressed enzymes were used to minimize nonspecific binding and membrane partitioning issues ([15]).

CYP2D6 = CYP2D6 (Homo sapiens, UniProt P10635); assay: Cytochrome P450 inhibition assay, 2D6 (fluorescent substrate); format: in vitro ADME; details: expressed enzyme
Sequence of CYP2D6 (P10635 whole entry): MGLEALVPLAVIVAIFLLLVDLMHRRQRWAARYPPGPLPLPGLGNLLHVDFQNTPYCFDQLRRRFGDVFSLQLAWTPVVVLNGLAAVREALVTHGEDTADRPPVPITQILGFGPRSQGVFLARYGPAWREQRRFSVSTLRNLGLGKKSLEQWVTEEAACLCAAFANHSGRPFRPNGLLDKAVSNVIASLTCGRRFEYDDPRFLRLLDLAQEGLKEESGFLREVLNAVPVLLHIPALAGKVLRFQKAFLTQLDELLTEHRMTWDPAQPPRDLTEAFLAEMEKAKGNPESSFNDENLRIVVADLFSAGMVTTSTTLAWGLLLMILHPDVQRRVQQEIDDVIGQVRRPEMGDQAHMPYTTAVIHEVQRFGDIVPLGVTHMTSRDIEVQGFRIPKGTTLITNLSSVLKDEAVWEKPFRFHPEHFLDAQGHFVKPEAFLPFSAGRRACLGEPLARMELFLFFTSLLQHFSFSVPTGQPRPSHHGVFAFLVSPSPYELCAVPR
Method: as §1

[6] = biological target: human cytochrome P450 3A4 (Homo sapiens, UniProt P08684); assay: Cytochrome P450 inhibition assay, 3A4 (testosterone substrate, LC-MS/MS); format: in vitro ADME; details: expressed enzyme, read-out: IC50 CYP3A4
Sequence of human cytochrome P450 3A4 (P08684 whole entry): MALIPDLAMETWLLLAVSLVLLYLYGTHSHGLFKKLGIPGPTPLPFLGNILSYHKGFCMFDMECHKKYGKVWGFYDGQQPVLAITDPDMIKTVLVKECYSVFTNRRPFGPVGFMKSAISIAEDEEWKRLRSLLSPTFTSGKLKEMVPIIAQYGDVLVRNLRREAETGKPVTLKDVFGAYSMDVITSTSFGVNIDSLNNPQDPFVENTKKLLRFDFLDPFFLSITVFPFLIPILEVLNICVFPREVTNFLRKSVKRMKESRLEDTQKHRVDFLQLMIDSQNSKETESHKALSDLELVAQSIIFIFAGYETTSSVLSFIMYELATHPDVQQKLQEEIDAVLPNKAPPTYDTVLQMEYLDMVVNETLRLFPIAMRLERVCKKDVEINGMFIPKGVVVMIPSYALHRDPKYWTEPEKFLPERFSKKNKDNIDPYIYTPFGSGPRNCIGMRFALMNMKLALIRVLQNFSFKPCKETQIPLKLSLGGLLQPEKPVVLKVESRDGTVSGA
Method: as §1

[7] = biological target: α1a, α1b, α1d, β1, β2, β3, D2, D5, DAT, GABA-A, H2, H3, H4, mAChR1-5, opioid receptors (δ, κ, µ), benzodiazepine receptors (peripheral and brain) …; assay: Additional selectivity profiling, receptors and transporters (PDSP); details: PDSP panel, limited binding capacity; read-out: Ki at a variety of receptors and transporters
Method: (§2) In vitro assessments of MC-170073, MC-20078, and MC-230079 activity at the following targets were determined using the assay systems available through the Psychoactive Drug Screening Program (PDSP). Detailed protocols for each assay are available at https://pdsp.unc.edu/pdspweb/?site=assays. Receptors 5-HT1A, 5-HT1B, 5-HT1D, 5-HT1E, 5-HT2A, 5-HT2B, 5-HT2C, 5-HT3, 5-HT5A, 5-HT6, 5-HT7, α1A, α1B, α1D, α2A, α2B, α2C, benzodiazepine, β1, β2, β3, GABA-A, H1, H2, H3, H4, M1, M2, M3, M4, M5, δ-opioid, κ-opioid, and µ-opioid and transporters dopamine, norepinephrine, and serotonin were evaluated.

[8] = biological target: 5-HT1A, 5-HT1B, 5-HT1D, 5-HT1E, 5-HT2A, 5-HT2B, 5-HT2C, 5-HT3, 5-HT4, 5-HT5A, and 5-HT6; assay: Off-target assessment at other 5-HT receptors (PDSP); format: binding; details: 1B, 1D, 1E, 2A, 2B, 2C, 3, 4, 5A, 6
Method: as §2

[9] = pH 7.4, aqueous buffer, kinetic from dmso stock

CCC1(CC)CC(CCN2CCN(c3ccc(O)cc3)CC2)OC1=O (centres unmarked) [MC-170073]
half-life [1]: > 1 h
Kb [2]: 0.018 µM
solubility [3, 9]: 200 µM (≈ 69.3 µg/mL)
solubility [3]: 168 µM (≈ 58.2 µg/mL)
Ki [4]: 0.089 µM
effect on body weight change, histology, or proinflammatory cytokine production [5]: no significant effect
IC50 (CYP2C9): > 10 µM
IC50 (CYP2D6): > 10 µM
IC50 [6]: > 10 µM
Ki [7]: > 10 µM
Ki [8]: > 10 µM

CCC1(CC)C[C@@H](CCN2CCN(c3ccc(O)cc3)CC2)OC1=O [MC-230078]
half-life [1]: 1 h
Kb [2]: 0.021 µM
solubility [3, 9]: 200 µM (≈ 69.3 µg/mL)
Ki [4]: 0.106 µM
effect on body weight change, histology, or proinflammatory cytokine production [5]: no significant effect
IC50 (CYP2C9): > 10 µM
IC50 (CYP2D6): > 10 µM
IC50 [6]: 9.46 µM
Ki [8]: > 10 µM
